# Peptide text beside a SMILES is read from it.
# Tested on: Botrytis cinerea (B05.10)
# Experiment: Resazurin antifungal assay of 180 alpha-factor peptide variants towards Botrytis (Example 2)
# Format: cell-based
# Settings: % inhibition of fungal growth, Botrytis conidia, resazurin; for Inhibition at 10 μM: peptide 10 μM; for Inhibition at 20 μM: peptide 20 μM; for Inhibition at 50 μM: peptide 50 μM; for Inhibition at 100 μM: peptide 100 μM; for Inhibition at 15 μM: peptide 15 μM
# Outline: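 B. cinerea B05.10 conidia (5000/well) were exposed to peptides at 100, 50, 20, 15 and 10 μM final for 24 h at 20° C. Resazurin was then added and fluorescence read at 570/620 nm. Percent growth inhibition was calculated against conidia-only wells, with four technical replicates.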
Compound,Inhibition at 10 μM [%],Inhibition at 20 μM [%],Inhibition at 50 μM [%],Inhibition at 100 μM [%],Inhibition at 15 μM [%]
CSCC[C@H](NC(=O)[C@@H]1CCCN1C(=O)[C@H](CCC(N)=O)NC(=O)CNC(=O)[C@@H]1CCCN1C(=O)[C@H](CCCCN)NC(=O)[C@H](Cc1ccccc1)NC(=O)[C@H](CO)NC(=O)[C@H](CC(C)C)NC(=O)[C@H](Cc1ccc(O)cc1)NC(=O)[C@H](Cc1c[nH]cn1)NC(=O)[C@@H](N)CCCCN)C(=O)N[C@@H](Cc1ccc(O)cc1)C(=O)O [compound 94] (H-KHYLSFKPGQPMY-OH; N-terminus and C-terminus assumed),<90,<90,97.32,100,–
CSCC[C@H](NC(=O)[C@H](CO)NC(=O)[C@H](CCC(N)=O)NC(=O)CNC(=O)[C@@H]1CCCN1C(=O)[C@H](CCCCN)NC(=O)[C@H](Cc1ccccc1)NC(=O)[C@H](CC(N)=O)NC(=O)[C@H](CC(C)C)NC(=O)[C@H](CO)NC(=O)[C@H](CCCCN)NC(=O)[C@@H](N)Cc1c[nH]c2ccccc12)C(=O)N[C@@H](Cc1ccc(O)cc1)C(=O)O [compound 159] (H-WKSLNFKPGQSMY-OH; N-terminus and C-terminus assumed),–,–,<90,<90,–
CSCC[C@H](NC(=O)[C@@H]1CCCN1C(=O)[C@H](CCC(N)=O)NC(=O)CNC(=O)[C@@H](NC(=O)[C@H](CC(N)=O)NC(=O)[C@H](CC(C)C)NC(=O)[C@H](CO)NC(=O)[C@H](CC(C)C)NC(=O)[C@H](Cc1c[nH]c2ccccc12)NC(=O)[C@H](Cc1c[nH]cn1)NC(=O)[C@@H](N)Cc1c[nH]c2ccccc12)[C@@H](C)O)C(=O)N[C@@H](Cc1ccc(O)cc1)C(=O)O [compound 46] (H-WHWLSLNTGQPMY-OH; N-terminus and C-terminus assumed),–,–,<90,97.03,–
CSCC[C@H](NC(=O)[C@@H]1CCCN1C(=O)[C@H](CCC(=O)O)NC(=O)CNC(=O)[C@H](CCCCN)NC(=O)[C@H](CCCCN)NC(=O)[C@H](CC(C)C)NC(=O)[C@H](CCC(N)=O)NC(=O)[C@@H](NC(=O)[C@H](Cc1c[nH]c2ccccc12)NC(=O)[C@H](Cc1c[nH]cn1)NC(=O)[C@@H](N)Cc1c[nH]c2ccccc12)C(C)C)C(=O)N[C@@H](Cc1ccc(O)cc1)C(=O)O [compound 106] (H-WHWVQLKKGEPMY-OH; N-terminus and C-terminus assumed),<90,<90,<90,100,–
CSCC[C@H](NC(=O)[C@@H]1CCCN1C(=O)[C@H](CCC(N)=O)NC(=O)CNC(=O)[C@@H]1CCCN1C(=O)[C@H](Cc1ccccc1)NC(=O)[C@H](CC(C)C)NC(=O)[C@H](CCC(N)=O)NC(=O)[C@@H](NC(=O)[C@H](Cc1c[nH]c2ccccc12)NC(=O)[C@H](Cc1c[nH]cn1)NC(=O)[C@@H](N)CCCCN)C(C)C)C(=O)N[C@@H](Cc1ccc(O)cc1)C(=O)O [compound 144] (H-KHWVQLFPGQPMY-OH; N-terminus and C-terminus assumed),–,–,<90,99.99,–
CSCC[C@H](NC(=O)[C@@H]1CCCN1C(=O)[C@H](CCC(N)=O)NC(=O)CNC(=O)[C@H](CCCNC(=N)N)NC(=O)[C@H](CCCCN)NC(=O)[C@H](CC(C)C)NC(=O)[C@H](CCCCN)NC(=O)[C@H](CC(C)C)NC(=O)[C@H](CO)NC(=O)[C@H](Cc1c[nH]cn1)NC(=O)[C@@H](N)Cc1c[nH]c2ccccc12)C(=O)N[C@@H](Cc1ccc(O)cc1)C(=O)O [compound 56] (H-WHSLKLKRGQPMY-OH; N-terminus and C-terminus assumed),<90,99.84,100,100,<90
CSCC[C@H](NC(=O)[C@@H]1CCCN1C(=O)[C@H](CCC(N)=O)NC(=O)CNC(=O)[C@H](CC(N)=O)NC(=O)[C@H](CCCCN)NC(=O)[C@H](CC(C)C)NC(=O)[C@H](CO)NC(=O)CNC(=O)[C@H](Cc1c[nH]c2ccccc12)NC(=O)[C@H](CCCCN)NC(=O)[C@@H](N)Cc1c[nH]c2ccccc12)C(=O)N[C@@H](Cc1ccc(O)cc1)C(=O)O [compound 98] (H-WKWGSLKNGQPMY-OH; N-terminus and C-terminus assumed),<90,<90,95.59,100,–
CSCC[C@H](NC(=O)[C@@H]1CCCN1C(=O)[C@H](CCC(N)=O)NC(=O)CNC(=O)[C@@H]1CCCN1C(=O)[C@H](CCCCN)NC(=O)[C@H](Cc1ccccc1)NC(=O)[C@H](CCCNC(=N)N)NC(=O)[C@H](CC(C)C)NC(=O)[C@H](CC(=O)O)NC(=O)[C@H](Cc1c[nH]cn1)NC(=O)[C@@H](N)CCCCN)C(=O)N[C@@H](Cc1ccc(O)cc1)C(=O)O [compound 29] (H-KHDLRFKPGQPMY-OH; N-terminus and C-terminus assumed),–,–,<90,97.77,–
CSCC[C@H](NC(=O)[C@@H]1CCCN1C(=O)[C@H](CCC(N)=O)NC(=O)CNC(=O)[C@H](CC(N)=O)NC(=O)[C@H](CCCCN)NC(=O)[C@H](Cc1ccccc1)NC(=O)[C@H](CC(N)=O)NC(=O)[C@H](CC(C)C)NC(=O)[C@H](Cc1c[nH]c2ccccc12)NC(=O)[C@H](CCC(=O)O)NC(=O)[C@@H](N)CCCCN)C(=O)N[C@@H](Cc1ccc(O)cc1)C(=O)O [compound 145] (H-KEWLNFKNGQPMY-OH; N-terminus and C-terminus assumed),–,–,<90,<90,–
CSCC[C@H](NC(=O)[C@H](Cc1c[nH]cn1)NC(=O)[C@@H](N)Cc1c[nH]c2ccccc12)C(=O)N[C@@H](CC(C)C)C(=O)N[C@H](C(=O)N[C@@H](Cc1ccccc1)C(=O)N[C@@H](CCCCN)C(=O)N1CCC[C@H]1C(=O)NCC(=O)N[C@@H](CCC(N)=O)C(=O)N1CCC[C@H]1C(=O)N[C@@H](CCSC)C(=O)N[C@@H](Cc1ccc(O)cc1)C(=O)O)[C@@H](C)O [compound 170] (H-WHMLTFKPGQPMY-OH; N-terminus and C-terminus assumed),–,–,<90,<90,–
CC[C@H](C)[C@H](NC(=O)[C@H](CCCNC(=N)N)NC(=O)[C@H](CC(C)C)NC(=O)[C@H](CCSC)NC(=O)[C@H](Cc1c[nH]cn1)NC(=O)[C@@H](N)CCCCN)C(=O)N[C@@H](CCCCN)C(=O)N1CCC[C@H]1C(=O)NCC(=O)N[C@@H](CCC(N)=O)C(=O)N1CCC[C@H]1C(=O)N[C@@H](CCSC)C(=O)N[C@@H](Cc1ccc(O)cc1)C(=O)O [compound 67] (H-KHMLRIKPGQPMY-OH; N-terminus and C-terminus assumed),<90,97.68,100,100,<90
CC[C@H](C)[C@H](NC(=O)[C@H](Cc1c[nH]c2ccccc12)NC(=O)[C@H](Cc1c[nH]cn1)NC(=O)[C@@H](N)CCCCN)C(=O)N[C@H](C(=O)N[C@@H](CC(C)C)C(=O)N[C@@H](CCCCN)C(=O)N[C@@H](CO)C(=O)NCC(=O)N[C@@H](CCSC)C(=O)N1CCC[C@H]1C(=O)N[C@@H](CCSC)C(=O)N[C@@H](Cc1ccc(O)cc1)C(=O)O)[C@@H](C)O [compound 59] (H-KHWITLKSGMPMY-OH; N-terminus and C-terminus assumed),<90,90.97,100,100,<90
